Active and inactive are the calls of the source. The rule behind the calls is not given here.
Tested on: GENE-TOX genotoxicity assays, various organisms and cells
Test: GENE-TOX mutagenicity studies
Conditions: for call: Assay Type: In vivo carcinogenicity studies
[1] = Species/Cell Type: Nonhuman, Assay Code: CCG+, Evaluation Type: Evaluation A (Pre-1980)
[2] = Species/Cell Type: Salmonella typhimurium (one or more of the five standard strains: TA98, TA100, TA1535, TA1537, and TA1538), Assay Type: Histidine reverse gene mutation, Ames assay, Assay Code: SAL+, Evaluation Type: Evaluation A (Pre-1980)
[3] = Species/Cell Type: Bacillus subtilis (H17 vs M45), Assay Type: Rec-assay, spot test, DNA effects (bacterial DNA repair), Assay Code: REW-, Evaluation Type: Evaluation A (Pre-1980)
[4] = Species/Cell Type: Mammalian polychromatic erythrocytes, Assay Type: Micronucleus test, chromosome aberrations, Assay Code: MNT+, Evaluation Type: Evaluation B (Post-1980)

## CCNc1nc(Cl)nc(NC(C)(C)C#N)n1
Species/Cell Type: Drosophila melanogaster, Assay Type: Aneuploidy, partial sex chromosome loss, chromosome aberrations, Assay Code: DAPT, Evaluation Type: Evaluation A (Pre-1980)
  mutagenic call: no conclusion
Species/Cell Type: Drosophila melanogaster, Assay Type: Aneuploidy, sex chromosome gain, chromosome aberrations, Assay Code: DAGT, Evaluation Type: Evaluation A (Pre-1980)
  mutagenic call: no conclusion
Species/Cell Type: Drosophila melanogaster, Assay Type: Aneuploidy, whole sex chromosome loss, chromosome aberrations, Assay Code: DAC-M, Evaluation Type: Evaluation A (Pre-1980)
  mutagenic call: inactive; negative
Species/Cell Type: Drosophila melanogaster, Assay Type: Sex-linked recessive lethal gene mutation, Assay Code: SRLT, Evaluation Type: Evaluation A (Pre-1980)
  mutagenic call: no conclusion
Species/Cell Type: Neurospora crassa, Assay Type: Aneuploidy, chromosome aberrations, Assay Code: NEN-, Evaluation Type: Evaluation A (Pre-1980)
  mutagenic call: inactive; negative
Species/Cell Type: Tradescantia species, Assay Type: Chromosome aberrations, Assay Code: TRC+, Evaluation Type: Evaluation A (Pre-1980)
  mutagenic call: active; positive
Species/Cell Type: Vicia faba, Assay Type: Chromosome aberrations, Assay Code: VIC+, Evaluation Type: Evaluation A (Pre-1980)
  mutagenic call: active; positive
Species/Cell Type: Zea mays (corn), Assay Type: Gene mutation, Assay Code: ZEM+, Evaluation Type: Evaluation A (Pre-1980)
  mutagenic call: active; positive

## C1=Cc2cc3cccc4ccc5ccc1c2c5c43
Species/Cell Type: Nonhuman, Assay Code: CCG+L, Evaluation Type: Evaluation A (Pre-1980)
  call: active; positive
Species/Cell Type: Salmonella typhimurium (one or more of the five standard strains: TA98, TA100, TA1535, TA1537, and TA1538), Assay Type: Histidine reverse gene mutation, Ames assay, Assay Code: SAL+*, Activation: With metabolic activation, Evaluation Type: Evaluation A (Pre-1980)
  mutagenic call: active; positive

## C[N+](=O)[O-]
Species/Cell Type: Mammalian polychromatic erythrocytes, Assay Type: Micronucleus test, chromosome aberrations, Assay Code: MNTT, Evaluation Type: Evaluation B (Post-1980)
  mutagenic call: no conclusion

## O=c1[nH]cc(N(CCCl)CCCl)c(=O)[nH]1
Species/Cell Type: Drosophila melanogaster, Assay Type: Sex-linked recessive lethal gene mutation, Assay Code: SRL+, Evaluation Type: Evaluation A (Pre-1980)
  mutagenic call: active; positive
Species/Cell Type: Escherichia coli polA (W3119 vs P3478), Assay Type: Rec-assay, DNA effects (bacterial DNA repair), Assay Code: RE1+, Evaluation Type: Evaluation A (Pre-1980)
  mutagenic call: active; positive
Species/Cell Type: Fischer rat embryo (RLV/1706) cells, Assay Type: Cell transformation, viral enhanced, Assay Code: CTR+, Evaluation Type: Evaluation A (Pre-1980)
  mutagenic call: active; positive
Species/Cell Type: Mouse (BALB/c-3T3) cells, Assay Type: Cell transformation, Assay Code: CTB-, Evaluation Type: Evaluation A (Pre-1980)
  mutagenic call: inactive; negative
Species/Cell Type: Mouse lymphoma (L5178Y) cells, Assay Type: Forward gene mutation at the thymidine kinase (TK) locus, chromosome aberrations, Assay Code: L51+, Evaluation Type: Evaluation A (Pre-1980)
  mutagenic call: active; positive
[1]
  call: active; positive
Species/Cell Type: Saccharomyces cerevisiae, Assay Type: Mitotic recombination or gene conversion, Assay Code: YEH+, Evaluation Type: Evaluation A (Pre-1980)
  mutagenic call: active; positive
[2]
  mutagenic call: active; positive
Species/Cell Type: Salmonella typhimurium, Assay Type: Forward and reverse gene mutation, host-mediated assay, Assay Code: HMA+, Evaluation Type: Evaluation A (Pre-1980)
  mutagenic call: active; positive

## O=[N+]([O-])c1cccc2ccccc12
Species/Cell Type: Nonhuman, Assay Code: CCG-, Evaluation Type: Evaluation A (Pre-1980)
  call: inactive; negative

## [Cl][Nb]([Cl])([Cl])([Cl])[Cl]
[3]
  mutagenic call: inactive; negative

## [O-][Br+2]([O-])O
[4]
  mutagenic call: active; positive

## CCOc1ccc(NC(C)=O)cc1
[4]
  mutagenic call: active; positive
[1]
  call: active; positive
Species/Cell Type: Nonhuman, Assay Type: Sister-chromatid exchange (SCE) in vivo, Assay Code: SC3+, Evaluation Type: Evaluation B (Post-1980)
  mutagenic call: active; positive

## CCCCCCN(N=O)C(N)=O
[2]
  mutagenic call: active; positive

## CCN(Cc1cccc(S(=O)(=O)O)c1)c1ccc(C(=C2C=CC(=[N+](CC)Cc3cccc(S(=O)(=O)[O-])c3)C=C2)c2ccccc2)cc1
Species/Cell Type: Bacillus subtilis (H17 vs M45), Assay Type: Rec-assay, spot test, DNA effects (bacterial DNA repair), Assay Code: REWT, Evaluation Type: Evaluation A (Pre-1980)
  mutagenic call: no conclusion

## COc1ccc2c(c1)CC[C@@H]1[C@@H]2CC[C@]2(C)[C@@H](O)[C@H](O)C[C@@H]12
Species/Cell Type: Rat, Sex: Male, Assay Type: Sperm morphology, Assay Code: SPA+, Evaluation Type: Evaluation A (Pre-1980)
  mutagenic call: active; positive

## Cc1cc2nc3ccc(N(C)C)cc3nc2cc1NC(=O)CN(C)N=O
Species/Cell Type: Salmonella typhimurium (one or more of the five standard strains: TA98, TA100, TA1535, TA1537, and TA1538), Assay Type: Histidine reverse gene mutation, Ames assay, Assay Code: SALT, Evaluation Type: Evaluation A (Pre-1980)
  mutagenic call: no conclusion

## OC[C@@H](O)[C@@H](O[C@H]1O[C@H](CO)[C@@H](O)[C@H](O)[C@H]1O)[C@H](O)[C@@H](O)CO
Species/Cell Type: Mammalian polychromatic erythrocytes, Assay Type: Micronucleus test, chromosome aberrations, Assay Code: MNT-, Evaluation Type: Evaluation B (Post-1980)
  mutagenic call: inactive; negative

## [Cl][Pd][Cl]
[3]
  mutagenic call: inactive; negative

Reference: PubChem BioAssay AID1259408 (Genetic Toxicology Data Bank (GENE-TOX), 2018)
